These results are taken from ChEMBL document CHEMBL5729195, “Heterocyclic compounds useful as aurora a selective inhibitors” (2022).

Structures are written as SMILES. pIC50: −log10 of the molar value.

For the assay, the target named is T1, Aurora kinase A (Homo sapiens, UniProt O14965).
T1 sequence (O14965 whole entry): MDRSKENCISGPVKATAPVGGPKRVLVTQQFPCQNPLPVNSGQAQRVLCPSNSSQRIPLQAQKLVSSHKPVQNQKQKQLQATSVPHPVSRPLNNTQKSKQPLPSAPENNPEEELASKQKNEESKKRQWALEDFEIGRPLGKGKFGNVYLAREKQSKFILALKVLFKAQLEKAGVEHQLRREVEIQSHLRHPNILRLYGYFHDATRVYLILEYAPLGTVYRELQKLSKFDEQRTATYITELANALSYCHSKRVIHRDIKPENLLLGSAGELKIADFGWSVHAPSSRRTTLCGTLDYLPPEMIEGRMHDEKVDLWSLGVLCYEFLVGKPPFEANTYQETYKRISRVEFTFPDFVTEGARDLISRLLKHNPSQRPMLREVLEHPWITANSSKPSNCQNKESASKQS
The assay is described as follows: The testing compound was diluted up to 100× final concentration in a 384-well plate. Transfer 250 nL of the compound dilution to a 384-well assay plate using Echo 550.

In general, pIC50 refers to the negative decadic logarithm of the IC50, by convention in mol/L. Read a high pIC50 as a low IC50. `Cc1cc(Nc2cc(F)cc(C[C@@]3(C(=O)O)CCN(Cc4cccc(Cl)c4F)[C@H](C)C3)n2)n[nH]1`: the pIC50 is 8.96.
